One data set deals with Leishmania donovani. The data set can be described thus: Antileishmanial activity against Leishmania donovani MHOM/SD/62/ISCL2D axenic amastigotes after 72 hrs by alamar blue assay. It counts as functional. On the technique in general: Resazurin is reduced to fluorescent resorufin, in cell work by metabolically active cells.
A short description of data set [1]: Selectivity index, ratio of IC50 for rat L6 cells to IC50 for Trypanosoma cruzi Tulahuen strain C2C4 amastigote forms harboring LacZ infected in rat L6 cells. It counts as toxicity, cell-based. Particulars: read-out: Ratio IC50.
Data set [2] can be described thus: Selectivity index, ratio of IC50 for rat L6 cells to IC50 for Leishmania donovani MHOM/SD/62/ISCL2D axenic amastigotes. To be noted: read-out: Ratio IC50. In kind it is toxicity.
Data set [3] in a line: Selectivity index, ratio of IC50 for rat L6 cells to IC50 for chloroquine resistant Plasmodium falciparum K1 erythrocytic stage. To be noted: read-out: Ratio IC50. It counts as toxicity.
The subject of a further data set is Trypanosoma cruzi. The data set can be described thus: Antitrypanosomal activity against Trypanosoma cruzi Tulahuen strain C2C4 amastigote forms harboring LacZ infected in rat L6 cells after 96 hrs by CPRG/Nonidet reagent based photometric method. It counts as functional, cell-based. To be noted: Tulahuen strain C2C4, L6, 96 h.
A further data set concerns Plasmodium falciparum. The data set can be described thus: Antiplasmodial activity against chloroquine resistant Plasmodium falciparum K1 erythrocytic stage assessed as reduction in [3H]hypoxanthine incorporation after 48 hrs by liquid scintillation counting assay. It counts as functional.
Another data set deals with L6. As to the kind of experiment: Cytotoxicity against rat L6 cells assessed as growth inhibition after 72 hrs by alamar blue assay. In kind it is cell-based. To be noted: L6, 72 h.
For data set [4], the system named is Trypanosoma brucei rhodesiense. The data set can be described thus: Antitrypanosomal activity against bloodstream forms of Trypanosoma brucei rhodesiense STIB900 trypomastigotes after 72 hrs by alamar blue assay. It counts as functional. Particulars: STIB900, 72 h.
Data set [5] can be described thus: Selectivity index, ratio of IC50 for rat L6 cells to IC50 for bloodstream forms of Trypanosoma brucei rhodesiense STIB900 trypomastigotes. In kind it is toxicity. To be noted: read-out: Ratio IC50.

Broadly, the IC50 is the concentration that inhibits the measured activity by half. As for `Nc1nc(Cl)c2ccn([C@@H]3O[C@H](CO)[C@@H](O)[C@H]3O)c2n1`, the IC50 in the data set with Leishmania donovani was 0.06 µM; in the data set with Trypanosoma cruzi, 3.4 µM; with Plasmodium falciparum, 68 µM; in the data set on L6, 163 µM; in [4] it was 0.13 µM. Besides, the selectivity ratio in data set [1] turned out to be 48; in data set [2], 2720; in data set [3] it was 2; in data set [5], 1250.
For `Nc1nc([Se][Se]c2nc(N)nc3c2ccn3[C@@H]2O[C@H](CO)[C@@H](O)[C@H]2O)c2ccn([C@@H]3O[C@H](CO)[C@@H](O)[C@H]3O)c2n1`, the IC50 in the data set on Leishmania donovani was greater than 145 µM; in the data set with Trypanosoma cruzi, 21 µM; with Plasmodium falciparum, 20.5 µM; in the data set on L6 it was 24 µM; in data set [4] it was 9.6 µM. The selectivity ratio is 1 in [1], less than 0.2 in data set [2], 1 in data set [3] and 3 in [5].
As to `CNc1nc(N)nc2c1ncn2[C@@H]1O[C@H](CSC)[C@@H](O)[C@H]1O`, the IC50 with Leishmania donovani was greater than 318 µM; with Trypanosoma cruzi it was 22 µM; in the data set with Plasmodium falciparum it was 29 µM; with L6, 165 µM; in data set [4], 290 µM. Also, the selectivity ratio is 8 in [1], 0.5 in data set [2], 6 in data set [3] and 0.6 in [5].
Take `Nc1nc2c(ccn2[C@@H]2O[C@H](CO)[C@@H](O)[C@H]2O)c(=S)[nH]1`: the IC50 in the data set on Leishmania donovani was greater than 335 µM; in the data set with Trypanosoma cruzi, 71 µM; in the data set with Plasmodium falciparum, greater than 168 µM; in the data set with L6, 185 µM; in data set [4], 61 µM. Moreover, the selectivity ratio in data set [1] is 3; in data set [2] it was less than 0.6; in [3], less than 1; in [5], 3.
